According to patent publication US12583884B2, “3beta-(benzyloxy)-17alpha-methyl-pregn-5-en-20-one for use in the treatment of cognitive disorders” (AELIS FARMA, priority 2018, dated 2026):
Read-outs that look alike come from different tables or passages of the source.

Tests used:
[1] = target: T1, Adenosine A2A (Homo sapiens, UniProt P29274); test: CEREP binding profile: A2A
T1 construct: CEREP
Source text: (§1) The CEREP High-throughput profile consists of a broad collection of 80 transmembrane and soluble receptors, ion channels and G-Protein coupled receptors.

[2] = target: T2, Adenosine A3 (Homo sapiens, UniProt P0DMS8); test: CEREP binding profile: A3
T2 construct: CEREP
Source text: as §1

[3] = test system: Adrenergic alpha1; test: CEREP binding profile: alpha1; conditions: 10 μM
Source text: as §1

[4] = test system: Adrenergic alpha2; test: CEREP binding profile: alpha2; conditions: 10 μM
Source text: as §1

[5] = target: T3, Adrenergic beta2 (Homo sapiens, UniProt P07550); test: CEREP binding profile: beta2
T3 construct: CEREP
Source text: as §1

[6] = target: T4, Angiotensin-II AT2 (Homo sapiens, UniProt P50052); test: CEREP binding profile: AT2
T4 construct: CEREP
T4 sequence (P50052 whole entry): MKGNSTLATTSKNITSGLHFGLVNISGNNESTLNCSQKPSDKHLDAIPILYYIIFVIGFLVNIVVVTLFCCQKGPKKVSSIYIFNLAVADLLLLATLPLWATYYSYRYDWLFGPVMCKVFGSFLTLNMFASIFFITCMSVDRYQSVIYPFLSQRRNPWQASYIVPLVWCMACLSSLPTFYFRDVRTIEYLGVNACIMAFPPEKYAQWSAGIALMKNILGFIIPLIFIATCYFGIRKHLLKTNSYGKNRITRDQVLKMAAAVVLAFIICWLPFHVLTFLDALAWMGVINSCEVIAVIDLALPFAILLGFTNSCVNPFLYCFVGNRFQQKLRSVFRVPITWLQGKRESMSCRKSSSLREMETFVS
Source text: as §1

[7] = target: T5, Cannabinoid CB1 (Homo sapiens, UniProt P21554); test: CEREP binding profile: CB1
T5 construct: CEREP
Source text: as §1

[8] = target: T6, Chemokines CXCR2 (Homo sapiens, UniProt P25025); test: CEREP binding profile: CXCR2
T6 construct: CEREP
Source text: as §1

[9] = target: T7, Cholecystokinin CCK2 (CCKB) (Homo sapiens, UniProt P32239); test: CEREP binding profile: CCK2
T7 construct: CEREP
T7 sequence (P32239 whole entry): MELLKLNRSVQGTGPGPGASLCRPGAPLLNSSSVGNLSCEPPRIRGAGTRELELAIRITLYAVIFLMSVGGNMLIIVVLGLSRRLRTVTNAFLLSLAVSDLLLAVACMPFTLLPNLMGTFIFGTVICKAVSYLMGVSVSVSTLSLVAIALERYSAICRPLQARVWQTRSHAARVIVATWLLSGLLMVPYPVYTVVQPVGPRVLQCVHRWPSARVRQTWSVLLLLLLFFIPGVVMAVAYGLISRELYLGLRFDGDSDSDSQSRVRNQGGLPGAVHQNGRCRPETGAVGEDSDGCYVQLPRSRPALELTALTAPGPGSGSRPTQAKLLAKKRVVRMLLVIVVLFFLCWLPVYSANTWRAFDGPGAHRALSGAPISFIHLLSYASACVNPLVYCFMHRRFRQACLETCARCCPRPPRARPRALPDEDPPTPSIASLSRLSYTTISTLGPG
Source text: as §1

[10] = target: T8, Dopamine D1 (Homo sapiens, UniProt P21728); test: CEREP binding profile: D1
T8 construct: CEREP
Source text: as §1

[11] = target: T9, Dopamine D3 (Homo sapiens, UniProt P35462); test: CEREP binding profile: D3
T9 construct: CEREP
Source text: as §1

[12] = target: T10, Dopamine D4.4 (Homo sapiens, UniProt P21917); test: CEREP binding profile: D4.4
T10 construct: CEREP
Source text: as §1

[13] = target: T11, Dopamine D5 (Homo sapiens, UniProt P21918); test: CEREP binding profile: D5
T11 construct: CEREP
Source text: as §1

[14] = target: Galanin GAL1 (Homo sapiens, UniProt P47211); test: CEREP binding profile: GAL1
Galanin GAL1, sequence (P47211 whole entry): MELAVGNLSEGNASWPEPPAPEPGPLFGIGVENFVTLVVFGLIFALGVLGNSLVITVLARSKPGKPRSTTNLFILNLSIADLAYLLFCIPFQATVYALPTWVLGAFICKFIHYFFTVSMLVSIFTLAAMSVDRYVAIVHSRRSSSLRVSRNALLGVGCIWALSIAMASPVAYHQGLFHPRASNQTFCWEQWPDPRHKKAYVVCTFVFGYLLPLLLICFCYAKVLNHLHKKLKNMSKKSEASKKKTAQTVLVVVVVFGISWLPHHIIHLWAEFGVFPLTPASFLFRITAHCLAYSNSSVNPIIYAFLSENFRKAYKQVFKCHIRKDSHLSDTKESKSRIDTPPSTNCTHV
Source text: as §1

[15] = target: Galanin GAL2 (Homo sapiens, UniProt O43603); test: CEREP binding profile: GAL2
Source text: as §1

[16] = target: Histamine H1 (Homo sapiens, UniProt P35367); test: CEREP binding profile: H1
Histamine H1, sequence (P35367 whole entry): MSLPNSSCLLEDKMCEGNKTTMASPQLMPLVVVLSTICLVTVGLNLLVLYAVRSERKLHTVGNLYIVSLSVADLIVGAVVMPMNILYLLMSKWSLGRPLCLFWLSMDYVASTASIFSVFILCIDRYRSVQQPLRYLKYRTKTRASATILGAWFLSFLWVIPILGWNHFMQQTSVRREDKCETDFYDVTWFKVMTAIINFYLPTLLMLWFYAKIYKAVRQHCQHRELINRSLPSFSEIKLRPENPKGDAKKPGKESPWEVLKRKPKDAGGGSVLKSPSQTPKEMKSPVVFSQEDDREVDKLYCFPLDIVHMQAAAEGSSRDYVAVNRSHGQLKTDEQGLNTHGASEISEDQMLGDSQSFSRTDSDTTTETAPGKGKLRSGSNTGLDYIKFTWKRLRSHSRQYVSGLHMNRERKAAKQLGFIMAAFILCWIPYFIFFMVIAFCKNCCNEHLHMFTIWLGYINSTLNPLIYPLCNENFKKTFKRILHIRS
Source text: as §1

[17] = target: Histamine H2 (Homo sapiens, UniProt P25021); test: CEREP binding profile: H2
Source text: as §1

[18] = target: Muscarinic M4 (Homo sapiens, UniProt P08173); test: CEREP binding profile: M4
Source text: as §1

[19] = target: Muscarinic M5 (Homo sapiens, UniProt P08912); test: CEREP binding profile: M5
Source text: as §1

[20] = target: Neurokinin NK2 (Homo sapiens, UniProt P21452); test: CEREP binding profile: NK2
Source text: as §1

[21] = target: Opioid and opioid-like kappa (KOP) (Rattus norvegicus, UniProt P34975); test: CEREP binding profile: kappa; conditions: 10 μM
Source text: as §1

[22] = target: Opioid and opioid-like mu (MOP) (Homo sapiens, UniProt P35372); test: CEREP binding profile: mu; conditions: 10 μM
Source text: as §1

[23] = target: Opioid and opioid-like NOP (ORL1) (Homo sapiens, UniProt P41146); test: CEREP binding profile: NOP; conditions: 10 μM
Opioid and opioid-like NOP (ORL1), sequence (P41146 whole entry, species assumed): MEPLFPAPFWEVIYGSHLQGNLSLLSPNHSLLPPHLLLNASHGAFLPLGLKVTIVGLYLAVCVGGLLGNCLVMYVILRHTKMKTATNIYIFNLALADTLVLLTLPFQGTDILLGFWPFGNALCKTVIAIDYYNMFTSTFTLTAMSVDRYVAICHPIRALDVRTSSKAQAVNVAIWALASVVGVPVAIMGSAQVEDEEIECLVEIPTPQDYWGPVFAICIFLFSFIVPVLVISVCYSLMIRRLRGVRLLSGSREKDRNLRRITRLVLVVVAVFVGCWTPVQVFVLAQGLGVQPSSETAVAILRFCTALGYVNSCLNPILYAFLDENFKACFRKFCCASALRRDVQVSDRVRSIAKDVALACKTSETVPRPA
Source text: as §1

[24] = target: Prostanoid EP2 (Homo sapiens, UniProt P43116); test: CEREP binding profile: EP2
Prostanoid EP2, sequence (P43116 whole entry): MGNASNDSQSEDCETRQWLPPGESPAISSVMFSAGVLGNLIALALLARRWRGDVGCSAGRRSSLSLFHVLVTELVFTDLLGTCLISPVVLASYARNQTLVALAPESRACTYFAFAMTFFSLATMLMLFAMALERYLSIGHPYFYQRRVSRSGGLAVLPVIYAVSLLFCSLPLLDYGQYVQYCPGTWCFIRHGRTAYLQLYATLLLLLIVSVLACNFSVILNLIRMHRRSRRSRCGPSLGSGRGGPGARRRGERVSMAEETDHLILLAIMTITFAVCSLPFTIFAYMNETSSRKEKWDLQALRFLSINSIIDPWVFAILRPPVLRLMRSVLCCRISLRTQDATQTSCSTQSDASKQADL
Source text: as §1

[25] = test system: Purinergic P2Y; test: CEREP binding profile: P2Y; conditions: 10 μM
Source text: as §1

[26] = test system: Somatostatin sst; test: CEREP binding profile: sst; conditions: 10 μM
Source text: as §1

[27] = target: T12, Vasopressin V1a (Homo sapiens, UniProt P37288); test: CEREP binding profile: V1a
T12 construct: CEREP (contract panel)
Source text: as §1

[28] = target: T13, Serotonin 5-HT2A (Homo sapiens, UniProt P28223); test: CEREP binding profile: 5-HT2A
T13 construct: CEREP (contract panel)
Source text: as §1

[29] = target: T14, Serotonin 5-HT2B (Homo sapiens, UniProt P41595); test: CEREP binding profile: 5-HT2B
T14 construct: CEREP (contract panel)
Source text: as §1

[30] = target: T15, Serotonin 5-HT2C (Homo sapiens, UniProt P28335); test: CEREP binding profile: 5-HT2C
T15 construct: CEREP (contract panel)
T15 sequence (P28335 33-458): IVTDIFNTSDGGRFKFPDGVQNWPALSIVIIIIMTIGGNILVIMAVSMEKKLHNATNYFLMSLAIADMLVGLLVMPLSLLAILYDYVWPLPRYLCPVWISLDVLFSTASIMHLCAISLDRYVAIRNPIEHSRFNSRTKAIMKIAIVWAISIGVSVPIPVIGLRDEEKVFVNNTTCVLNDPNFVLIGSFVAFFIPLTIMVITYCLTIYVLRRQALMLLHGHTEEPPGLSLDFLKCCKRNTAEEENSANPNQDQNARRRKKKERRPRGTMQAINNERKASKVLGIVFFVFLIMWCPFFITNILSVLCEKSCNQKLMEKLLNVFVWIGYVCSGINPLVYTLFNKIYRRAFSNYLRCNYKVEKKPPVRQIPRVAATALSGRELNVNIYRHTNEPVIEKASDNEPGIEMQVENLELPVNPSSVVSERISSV
Source text: as §1

[31] = target: T16, Serotonin 5-HT5a (Homo sapiens, UniProt P47898); test: CEREP binding profile: 5-HT5a
T16 construct: CEREP (contract panel)
Source text: as §1

[32] = target: T17, Serotonin 5-HT7 (Homo sapiens, UniProt P34969); test: CEREP binding profile: 5-HT7
T17 construct: CEREP (contract panel)
T17 sequence (P34969 whole entry): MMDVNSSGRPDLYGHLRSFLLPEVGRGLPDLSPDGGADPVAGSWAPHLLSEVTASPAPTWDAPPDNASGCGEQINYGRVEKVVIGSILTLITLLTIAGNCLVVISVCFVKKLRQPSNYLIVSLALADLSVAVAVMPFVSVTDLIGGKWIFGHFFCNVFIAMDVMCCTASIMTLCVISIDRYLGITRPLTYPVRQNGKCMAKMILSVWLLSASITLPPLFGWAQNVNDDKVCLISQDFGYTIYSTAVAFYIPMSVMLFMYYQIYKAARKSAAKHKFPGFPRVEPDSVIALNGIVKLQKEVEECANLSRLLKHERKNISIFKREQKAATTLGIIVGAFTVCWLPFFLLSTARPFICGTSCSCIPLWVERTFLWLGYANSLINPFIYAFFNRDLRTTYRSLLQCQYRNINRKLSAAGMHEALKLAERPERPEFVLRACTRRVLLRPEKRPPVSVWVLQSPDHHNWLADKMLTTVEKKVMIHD
Source text: as §1

[33] = target: T18, Transporters Dopamine (Homo sapiens, UniProt Q01959); test: CEREP binding profile: dopamine transporter
T18 construct: CEREP (contract panel)
Source text: as §1

[34] = target: T19, Transporters Norepinephrine (Homo sapiens, UniProt P23975); test: CEREP binding profile: norepinephrine transporter
T19 construct: CEREP (contract panel)
Source text: as §1

[35] = target: T20, Benzodiazepine BZD (periph) (Rattus norvegicus, UniProt P16257); test: CEREP binding profile: BZD (periph)
T20 construct: CEREP (contract panel)
Source text: as §1

[36] = test system: Cytokines TNF-alpha; test: CEREP binding profile: TNF-alpha; conditions: 10 μM
Source text: as §1

[37] = test system: GABA BZD (central); test: CEREP binding profile: BZD (central); conditions: 10 μM
Source text: as §1

[38] = test system: Growth factors PDGF; test: CEREP binding profile: PDGF; conditions: 10 μM
Source text: as §1

[39] = test system: Purinergic channels P2X; test: CEREP binding profile: P2X; conditions: 10 μM
Source text: as §1

[40] = target: T21, Serotonin 5-HT3 (Homo sapiens, UniProt P46098); test: CEREP binding profile: 5-HT3
T21 construct: CEREP
T21 sequence (P46098 24-478): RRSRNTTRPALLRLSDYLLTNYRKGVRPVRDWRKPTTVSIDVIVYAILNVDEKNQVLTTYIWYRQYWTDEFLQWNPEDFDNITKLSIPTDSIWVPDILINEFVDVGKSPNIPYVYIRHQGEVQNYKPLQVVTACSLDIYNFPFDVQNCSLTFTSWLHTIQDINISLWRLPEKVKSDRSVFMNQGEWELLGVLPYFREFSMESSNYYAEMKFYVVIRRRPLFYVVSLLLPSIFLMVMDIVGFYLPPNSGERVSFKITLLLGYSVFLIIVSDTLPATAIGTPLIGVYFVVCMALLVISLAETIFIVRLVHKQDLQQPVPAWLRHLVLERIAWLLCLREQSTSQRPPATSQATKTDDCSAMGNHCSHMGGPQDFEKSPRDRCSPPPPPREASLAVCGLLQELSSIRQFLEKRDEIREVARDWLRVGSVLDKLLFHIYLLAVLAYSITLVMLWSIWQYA
Source text: as §1

[41] = test system: Steroid nuclear receptors ER; test: Binding: ER; conditions: 10 μM
Source text: as §1

[42] = target: T22, Non-steroid nuclear receptors PPAR gamma (Homo sapiens, UniProt P37231); test: CEREP binding profile: PPAR gamma
T22 construct: CEREP
T22 sequence (P37231 whole entry): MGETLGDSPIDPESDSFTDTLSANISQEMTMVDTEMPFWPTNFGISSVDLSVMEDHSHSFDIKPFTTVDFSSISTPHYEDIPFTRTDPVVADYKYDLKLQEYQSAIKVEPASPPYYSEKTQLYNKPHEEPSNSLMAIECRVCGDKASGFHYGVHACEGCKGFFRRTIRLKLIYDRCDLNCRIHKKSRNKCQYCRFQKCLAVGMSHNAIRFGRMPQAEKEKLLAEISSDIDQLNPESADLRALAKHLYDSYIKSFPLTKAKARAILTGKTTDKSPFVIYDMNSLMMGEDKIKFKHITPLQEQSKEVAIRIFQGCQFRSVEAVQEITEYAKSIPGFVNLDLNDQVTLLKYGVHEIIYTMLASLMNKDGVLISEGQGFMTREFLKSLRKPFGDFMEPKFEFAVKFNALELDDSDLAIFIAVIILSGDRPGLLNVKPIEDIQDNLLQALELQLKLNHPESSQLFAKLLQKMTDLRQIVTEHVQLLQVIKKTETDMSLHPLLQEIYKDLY
Source text: as §1

T1 sequence (P29274 whole entry): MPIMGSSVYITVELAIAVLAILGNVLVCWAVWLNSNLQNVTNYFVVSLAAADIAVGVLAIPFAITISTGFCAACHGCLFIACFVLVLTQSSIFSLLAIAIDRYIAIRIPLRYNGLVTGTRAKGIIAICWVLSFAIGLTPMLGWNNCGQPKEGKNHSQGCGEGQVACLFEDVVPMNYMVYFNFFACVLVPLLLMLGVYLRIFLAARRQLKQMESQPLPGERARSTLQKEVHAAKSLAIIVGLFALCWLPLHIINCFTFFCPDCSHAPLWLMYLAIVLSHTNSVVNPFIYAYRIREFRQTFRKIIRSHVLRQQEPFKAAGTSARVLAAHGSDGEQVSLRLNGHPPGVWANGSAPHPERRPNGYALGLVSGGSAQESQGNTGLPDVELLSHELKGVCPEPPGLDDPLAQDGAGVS

For `CC(=O)[C@@]1(C)CC[C@H]2[C@@H]3CC=C4C[C@@H](OCc5ccccc5)CC[C@]4(C)[C@H]3CC[C@@]21C` [3Bn17MeP, 3β-benzyloxy, 17α-methyl-pregn-5-en-20-one], the inhibition at 10 µM [1] was -6%, the inhibition at 10 µM [2] was 1% and the “% Inhibition” value [3] was 5%. The “% Inhibition” value [4] was −1%, the “% Inhibition” value ([5]; 10 μM) was −4% and the inhibition at 10 µM [6] was -5%. The “% Inhibition” value ([7]; 10 μM) was 2%, the inhibition at 10 µM [8] was 0% and the inhibition at 10 µM [9] was -21%. For the same compound, the “% Inhibition” value ([10]; 10 μM) was −10%, the “% Inhibition” value ([11]; 10 μM) was −2% and the “% Inhibition” value ([12]; 10 μM) was −10%. For the same compound, the “% Inhibition” value ([13]; 10 μM) was −6%, the inhibition at 10 µM [14] was -26% and the inhibition at 10 µM [15] was -11%. For the same compound, the inhibition at 10 µM [16] was 3%, the inhibition at 10 µM [17] was 12% and the inhibition at 10 µM [18] was 2%. The inhibition at 10 µM [19] was 0%, the inhibition at 10 µM [20] was -12% and the “% Inhibition” value [21] was −17%. The “% Inhibition” value [22] was −4%, the “% Inhibition” value [23] was 2% and the inhibition at 10 µM [24] was 19%. The “% Inhibition” value [25] was −2%, the “% Inhibition” value [26] was −6% and the inhibition at 10 µM [27] was 0%. For the same compound, the inhibition at 10 µM [28] was -8%, the “% Inhibition” value ([29]; 10 μM) was 16% and the “% Inhibition” value ([30]; 10 μM) was 10%. For the same compound, the “% Inhibition” value ([31]; 10 μM) was 2%, the “% Inhibition” value ([32]; 10 μM) was 8% and the inhibition at 10 µM [33] was -23%. For the same compound, the inhibition at 10 µM [34] was -1%, the inhibition at 10 µM [35] was 1% and the Inhibition % [36] was 4%. For the same compound, the Inhibition % [37] was −16%, the Inhibition % [38] was −13% and the Inhibition % [39] was 8%. The Inhibition % ([40]; 10 μM) was 4%, the Inhibition % [41] was −5% and the inhibition at 10 µM [42] was -12%.
With `CC(=O)[C@H]1CC[C@H]2[C@@H]3CC=C4C[C@@H](O)CC[C@]4(C)[C@H]3CC[C@]12C` [pregnenolone, reference compound] the inhibition at 10 µM [1] was -1%, the inhibition at 10 µM [2] was 11% and the “% Inhibition” value [3] was 1%. For the same compound, the “% Inhibition” value [4] was −2%, the inhibition at 10 µM [5] was -5% and the inhibition at 10 µM [6] was -18%. The inhibition at 10 µM [7] was 10%, the inhibition at 10 µM [8] was -10% and the inhibition at 10 µM [9] was -38%. The inhibition at 10 µM [10] was -8%, the inhibition at 10 µM [11] was 11% and the inhibition at 10 µM [12] was 20%. It also gave an inhibition at 10 µM [13] of -4%, an inhibition at 10 µM [14] of -16% and an inhibition at 10 µM [15] of 1%. It also gave an inhibition at 10 µM [16] of 0%, an inhibition at 10 µM [17] of 9% and an inhibition at 10 µM ([18]; M4, 10 μM, read-out: % Inhibition) of -4%. The inhibition at 10 µM ([19]; M5, 10 μM, read-out: % Inhibition) was 8%, the inhibition at 10 µM [20] was -1% and the “% Inhibition” value [21] was 38%. The “% Inhibition” value [22] was −5%, the “% Inhibition” value [23] was 2% and the inhibition at 10 µM [24] was 24%. The “% Inhibition” value [25] was −3%, the “% Inhibition” value [26] was −8% and the inhibition at 10 µM [27] was 10%. It also gave an inhibition at 10 µM ([28]; 5-HT2A, 10 μM, read-out: % Inhibition) of -1%, an inhibition at 10 µM [29] of -38% and an inhibition at 10 µM [30] of -9%. It also gave an inhibition at 10 µM [31] of 11%, an inhibition at 10 µM [32] of 11% and an inhibition at 10 µM ([33]; dopamine transporter, 10 μM, read-out: % Inhibition) of -12%. The inhibition at 10 µM ([34]; norepinephrine transporter, 10 μM, read-out: % Inhibition) was -12%, the Inhibition % ([35]; BZD (periph), 10 μM) was 42% and the inhibition at 10 µM ([35]; BZD (periph), 10 μM, read-out: Inhibition %) was > 40%. For the same compound, the Inhibition % [36] was 4%, the Inhibition % [37] was > 40% and the Inhibition % ([37]; listed as PREG) was −43%. It also gave an Inhibition % [38] of −15%, an Inhibition % [39] of 13% and an inhibition at 10 µM [40] of 6%. It also gave an Inhibition % [41] of 26% and an inhibition at 10 µM [42] of 4%.
